Laboratory results reported in PubChem BioAssay (NCI).
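Assay format: 96-well plates, 48-hour exposure. TGI: total growth inhibition.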

The molecules below were run on CAKI-1 renal (assay: inhibition of tumour cell growth, NCI panel, 48 h).

Compound | TGI [µM]
CSc1cnc2ccccc2c1SC1CN(Cc2ccccc2)c2ccccc2C1=O (stereo not drawn) | > 100
C=C1CN2CC(=C)CN(C1)CS(=O)(=O)N1CC(=C)CN(CC(=C)C1)S(=O)(=O)N1CC(=C)CN(CC(=C)C1)S(=O)(=O)C2 | > 100
O=C(O)/C=c1/c2ccccc2n2nc3ccccc3c12 | > 100
C=CC[C@]12C=C(OC)[C@@H](O)[C@](OC)(C(c3cc(OC)c4c(c3)OCO4)[C@H]1C)[C@H]2OC(C)=O (stereo partly drawn) | > 100
C=C(Cl)C(C)(Cl)CCC(Br)C(C)(C)Cl (stereo not drawn) | 50.1
O=C1c2ccccc2C2(c3ccc(Cl)cc3)N[C@H]3CCCC[C@@H]3N12 (stereo partly drawn) | > 100
COc1ccc2c(cnc3c4cc(OC)c(OC)cc4ccc23)c1 | > 100
Cn1c(COC(=O)Nc2ccccc2)c(COC(=O)Nc2ccccc2)c2ccc3cc(Cl)c(Cl)cc3c21 | 3.09
CCNC(=O)Nc1cccc(NC(=O)NCC)n1 | > 100
C=CCOc1ccc(C2C(C(=O)OCC)C(=O)CC(C)(O)C2C(=O)OCC)cc1OC (stereo not drawn) | > 100

Each molecule was assayed on HOP-92 NSCLC (assay: inhibition of tumour cell growth, NCI panel, 48 h).

Compound | TGI [µM]
C=C1C(=O)C=C[C@]2(C)CC[C@H]3C(=C)C(=O)O[C@@H]3[C@@H]12 | 7.62
O=C1/C(=C/c2ccc(Cl)cc2)CSc2ccccc21 | 90.3
CSc1ncnc2c1ncn2CCC#N | > 100
CC(C)(Cl)C(Br)CCC(=CCCl)CBr (mixture of isomers) | 4.03
CC(=O)OCC1OC(n2c3c(cc(C#N)c2=S)CCCCC3)C(OC(C)=O)C(OC(C)=O)C1OC(C)=O (stereo not drawn) | > 100
NC(CCC(=O)NC(CSCC1C(=O)Nc2ccccc21)C(=O)NCC(=O)O)C(=O)O (stereo not drawn) | 9.55
[N-]=[N+]=NC1=C(c2ccccn2)C(=O)c2cccc3cccc1c23 | > 100
O=C(O)c1ccc(OCc2nc3cc(C(F)(F)F)ccc3nc2-c2ccccc2)cc1 | > 100
CC1=C(CO)C(=O)O[C@@H]([C@@H](CO)[C@H]2CCC3C4C[C@@H](O)[C@@]5(O)CC=CC(=O)[C@]5(C)C4CC[C@@]32C)C1 (stereo partly drawn) | > 100
CSc1cnc2ccccc2c1SC1CN(Cc2ccccc2)c2ccccc2C1=O (stereo not drawn) | > 100
C=C1CN2CC(=C)CN(C1)CS(=O)(=O)N1CC(=C)CN(CC(=C)C1)S(=O)(=O)N1CC(=C)CN(CC(=C)C1)S(=O)(=O)C2 | > 100
C=CC[C@]12C=C(OC)[C@@H](O)[C@](OC)(C(c3cc(OC)c4c(c3)OCO4)[C@H]1C)[C@H]2OC(C)=O (stereo partly drawn) | > 100
C=C(Cl)C(C)(Cl)CCC(Br)C(C)(C)Cl (stereo not drawn) | 36.5
O=C1c2ccccc2C2(c3ccc(Cl)cc3)N[C@H]3CCCC[C@@H]3N12 (stereo partly drawn) | > 100
COc1ccc2c(cnc3c4cc(OC)c(OC)cc4ccc23)c1 | > 100
Cn1c(COC(=O)Nc2ccccc2)c(COC(=O)Nc2ccccc2)c2ccc3cc(Cl)c(Cl)cc3c21 | 7.54
CCNC(=O)Nc1cccc(NC(=O)NCC)n1 | > 100
C=CCOc1ccc(C2C(C(=O)OCC)C(=O)CC(C)(O)C2C(=O)OCC)cc1OC (stereo not drawn) | > 100
CC(C)=CCNc1ncnc2c1ncn2CCC#N | > 100

What follows are molecules tested on DU-145 prostate (assay: inhibition of tumour cell growth, NCI panel, 48 h).

Compound | TGI [µM]
C=C1C(=O)C=C[C@]2(C)CC[C@H]3C(=C)C(=O)O[C@@H]3[C@@H]12 | 5.13
O=C1/C(=C/c2ccc(Cl)cc2)CSc2ccccc21 | > 100
CSc1ncnc2c1ncn2CCC#N | > 100
CC(C)(Cl)C(Br)CCC(=CCCl)CBr (mixture of isomers) | 10.7
CC(=O)OCC1OC(n2c3c(cc(C#N)c2=S)CCCCC3)C(OC(C)=O)C(OC(C)=O)C1OC(C)=O (stereo not drawn) | > 100
NC(CCC(=O)NC(CSCC1C(=O)Nc2ccccc21)C(=O)NCC(=O)O)C(=O)O (stereo not drawn) | 12.9
[N-]=[N+]=NC1=C(c2ccccn2)C(=O)c2cccc3cccc1c23 | > 100
O=C(O)c1ccc(OCc2nc3cc(C(F)(F)F)ccc3nc2-c2ccccc2)cc1 | > 100
CC1=C(CO)C(=O)O[C@@H]([C@@H](CO)[C@H]2CCC3C4C[C@@H](O)[C@@]5(O)CC=CC(=O)[C@]5(C)C4CC[C@@]32C)C1 (stereo partly drawn) | > 100
CSc1cnc2ccccc2c1SC1CN(Cc2ccccc2)c2ccccc2C1=O (stereo not drawn) | > 100
C=C1CN2CC(=C)CN(C1)CS(=O)(=O)N1CC(=C)CN(CC(=C)C1)S(=O)(=O)N1CC(=C)CN(CC(=C)C1)S(=O)(=O)C2 | > 100
O=C(O)/C=c1/c2ccccc2n2nc3ccccc3c12 | > 100
C=CC[C@]12C=C(OC)[C@@H](O)[C@](OC)(C(c3cc(OC)c4c(c3)OCO4)[C@H]1C)[C@H]2OC(C)=O (stereo partly drawn) | > 100
C=C(Cl)C(C)(Cl)CCC(Br)C(C)(C)Cl (stereo not drawn) | 47.5
O=C1c2ccccc2C2(c3ccc(Cl)cc3)N[C@H]3CCCC[C@@H]3N12 (stereo partly drawn) | > 100
COc1ccc2c(cnc3c4cc(OC)c(OC)cc4ccc23)c1 | > 100
Cn1c(COC(=O)Nc2ccccc2)c(COC(=O)Nc2ccccc2)c2ccc3cc(Cl)c(Cl)cc3c21 | 31
CCNC(=O)Nc1cccc(NC(=O)NCC)n1 | > 100
C=CCOc1ccc(C2C(C(=O)OCC)C(=O)CC(C)(O)C2C(=O)OCC)cc1OC (stereo not drawn) | > 100
CC(C)=CCNc1ncnc2c1ncn2CCC#N | > 100

The molecules below were run on A498 renal (assay: inhibition of tumour cell growth, NCI panel, 48 h).

Compound | TGI [µM]
C=C1C(=O)C=C[C@]2(C)CC[C@H]3C(=C)C(=O)O[C@@H]3[C@@H]12 | 13.5
O=C1/C(=C/c2ccc(Cl)cc2)CSc2ccccc21 | > 100
CSc1ncnc2c1ncn2CCC#N | > 100
CC(C)(Cl)C(Br)CCC(=CCCl)CBr (mixture of isomers) | 9.22
CC(=O)OCC1OC(n2c3c(cc(C#N)c2=S)CCCCC3)C(OC(C)=O)C(OC(C)=O)C1OC(C)=O (stereo not drawn) | > 100
NC(CCC(=O)NC(CSCC1C(=O)Nc2ccccc21)C(=O)NCC(=O)O)C(=O)O (stereo not drawn) | 33.1
[N-]=[N+]=NC1=C(c2ccccn2)C(=O)c2cccc3cccc1c23 | 31.5
O=C(O)c1ccc(OCc2nc3cc(C(F)(F)F)ccc3nc2-c2ccccc2)cc1 | > 100
CC1=C(CO)C(=O)O[C@@H]([C@@H](CO)[C@H]2CCC3C4C[C@@H](O)[C@@]5(O)CC=CC(=O)[C@]5(C)C4CC[C@@]32C)C1 (stereo partly drawn) | > 100
CSc1cnc2ccccc2c1SC1CN(Cc2ccccc2)c2ccccc2C1=O (stereo not drawn) | > 100
C=C1CN2CC(=C)CN(C1)CS(=O)(=O)N1CC(=C)CN(CC(=C)C1)S(=O)(=O)N1CC(=C)CN(CC(=C)C1)S(=O)(=O)C2 | > 100
O=C(O)/C=c1/c2ccccc2n2nc3ccccc3c12 | 46
C=CC[C@]12C=C(OC)[C@@H](O)[C@](OC)(C(c3cc(OC)c4c(c3)OCO4)[C@H]1C)[C@H]2OC(C)=O (stereo partly drawn) | > 100
C=C(Cl)C(C)(Cl)CCC(Br)C(C)(C)Cl (stereo not drawn) | > 100
O=C1c2ccccc2C2(c3ccc(Cl)cc3)N[C@H]3CCCC[C@@H]3N12 (stereo partly drawn) | > 100
COc1ccc2c(cnc3c4cc(OC)c(OC)cc4ccc23)c1 | > 100
Cn1c(COC(=O)Nc2ccccc2)c(COC(=O)Nc2ccccc2)c2ccc3cc(Cl)c(Cl)cc3c21 | 4.25
CCNC(=O)Nc1cccc(NC(=O)NCC)n1 | > 100
C=CCOc1ccc(C2C(C(=O)OCC)C(=O)CC(C)(O)C2C(=O)OCC)cc1OC (stereo not drawn) | > 100
CC(C)=CCNc1ncnc2c1ncn2CCC#N | > 100

The molecules below were run on RPMI-8226 leukemia (assay: inhibition of tumour cell growth, NCI panel, 48 h).

Compound | TGI [µM]
C=C1C(=O)C=C[C@]2(C)CC[C@H]3C(=C)C(=O)O[C@@H]3[C@@H]12 | 5.87
O=C1/C(=C/c2ccc(Cl)cc2)CSc2ccccc21 | 5.29
CSc1ncnc2c1ncn2CCC#N | > 100
CC(C)(Cl)C(Br)CCC(=CCCl)CBr (mixture of isomers) | 4.38
CC(=O)OCC1OC(n2c3c(cc(C#N)c2=S)CCCCC3)C(OC(C)=O)C(OC(C)=O)C1OC(C)=O (stereo not drawn) | > 100
NC(CCC(=O)NC(CSCC1C(=O)Nc2ccccc21)C(=O)NCC(=O)O)C(=O)O (stereo not drawn) | 6.52
[N-]=[N+]=NC1=C(c2ccccn2)C(=O)c2cccc3cccc1c23 | > 100
CC1=C(CO)C(=O)O[C@@H]([C@@H](CO)[C@H]2CCC3C4C[C@@H](O)[C@@]5(O)CC=CC(=O)[C@]5(C)C4CC[C@@]32C)C1 (stereo partly drawn) | > 100
CSc1cnc2ccccc2c1SC1CN(Cc2ccccc2)c2ccccc2C1=O (stereo not drawn) | > 100
C=C1CN2CC(=C)CN(C1)CS(=O)(=O)N1CC(=C)CN(CC(=C)C1)S(=O)(=O)N1CC(=C)CN(CC(=C)C1)S(=O)(=O)C2 | > 100
O=C(O)/C=c1/c2ccccc2n2nc3ccccc3c12 | 70.1
C=CC[C@]12C=C(OC)[C@@H](O)[C@](OC)(C(c3cc(OC)c4c(c3)OCO4)[C@H]1C)[C@H]2OC(C)=O (stereo partly drawn) | > 100
C=C(Cl)C(C)(Cl)CCC(Br)C(C)(C)Cl (stereo not drawn) | 50.6
O=C1c2ccccc2C2(c3ccc(Cl)cc3)N[C@H]3CCCC[C@@H]3N12 (stereo partly drawn) | > 100
C=CCOc1ccc(C2C(C(=O)OCC)C(=O)CC(C)(O)C2C(=O)OCC)cc1OC (stereo not drawn) | > 100
CC(C)=CCNc1ncnc2c1ncn2CCC#N | > 100

These molecules were tested on K-562 leukemia (assay: inhibition of tumour cell growth, NCI panel, 48 h).

Compound | TGI [µM]
C=C1C(=O)C=C[C@]2(C)CC[C@H]3C(=C)C(=O)O[C@@H]3[C@@H]12 | 4.24
O=C1/C(=C/c2ccc(Cl)cc2)CSc2ccccc21 | 92.1
CSc1ncnc2c1ncn2CCC#N | > 100
